From patent US6653321B1, “Naphthylsulfonic acids and related compounds as glucose uptake agonists” (Telik, Inc., priority 1999, dated 2003)

What was measured:
[1] = biological target: T1, β-kinase domain of the human insulin receptor (CKD) (Homo sapiens, UniProt P06213); experiment: 32P-Cytoplasmic Kinase Domain (CKD) autophosphorylation assay; format: biochemical; details: 32P incorporated into CKD band, percentage of the vehicle (DMSO) level; 10 minutes at room temperature; compound concentration not given
T1 construct: The complete β-kinase domain of the human insulin receptor (CKD); made in house
T1 sequence (P06213 980-1382 limits assumed): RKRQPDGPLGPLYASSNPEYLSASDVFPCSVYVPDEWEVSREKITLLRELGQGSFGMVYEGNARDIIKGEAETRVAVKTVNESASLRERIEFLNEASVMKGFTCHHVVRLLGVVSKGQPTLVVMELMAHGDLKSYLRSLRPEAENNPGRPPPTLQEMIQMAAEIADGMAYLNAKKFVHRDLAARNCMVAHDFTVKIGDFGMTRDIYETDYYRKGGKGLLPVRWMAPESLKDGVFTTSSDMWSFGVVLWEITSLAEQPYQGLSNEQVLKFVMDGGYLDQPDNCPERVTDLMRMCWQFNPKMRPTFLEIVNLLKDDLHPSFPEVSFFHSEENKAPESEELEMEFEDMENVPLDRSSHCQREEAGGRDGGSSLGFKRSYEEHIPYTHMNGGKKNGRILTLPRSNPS
Procedure: The complete β-kinase domain of the human insulin receptor (CKD) was expressed in, and purified from, baculovirus. CKD (4.0 μg/mL), in a solution of 50 mM Tris.HCl, 2 mM MnCl2, 10 mM MgCl2 (50 μl final volume), was combined with […] ATP, and 5 μCi ^32P-ATP (3000 Ci/mmol.). A test compound, or the vehicle (DMSO), was added to a final DMSO concentration of 1%. The mixture was incubated for 10 minutes at room temperature. The reaction was terminated by the addition of 10 μl of 200 mM EDTA. A 30 μl volume was removed, mixed with 5 μl of 6×Laemmeli sodium dodecyl sulfate (SDS) treatment buffer, and heated to 94° C. for 5 minutes. A 20 μl aliquot was then run on an SDS-PAGE gel. The radioactivity incorporated into the CKD band is quantified by phosphorimaging of the gel, or scintillation counting of the excised bands.
The potency of a compound for increasing phosphorylation is expressed as a percentage of the vehicle level.

[2] = system: 3T3 L1 fibroblasts; experiment: Glucose transport activity (14C-2-deoxy-D-glucose uptake); format: cell-based; details: Mus musculus; differentiated 3T3 L1 cells, insulin 5.6 nM; concentration giving increase in glucose transport generally 150% of the vehicle control
Procedure: 3T3 L1 fibroblasts (ATCC) were grown in Dulbecco's modified Eagle's medium (DMEM) with 10% fetal bovine serum (FBS, medium). The cells were plated at a density of 3×10^4 cells/well in 24-well plates. Two days after confluence was reached, the cells were treated for 3 days with 0.5 mM isobutylmethylxanthine (IBMX), 1 μM dexamethasone, supplemented with 1.7 μM insulin. The cells were then transferred to medium with 1.7 μM insulin for 2 more days. The cells were maintained in medium for an additional 4 days. Finally the cells were serum starved overnight in 0.1% bovine serum albumin (BSA) in DMEM.
The following day, the culture medium was replaced with 150 mM NaCl, 1.7 mM KCl, 0.9 mM CaCl2, 1.47 mM K2HPO4 (pH 7.4) to which was added either the experimental compounds, or their vehicle (DMSO). Insulin or its vehicle (0.01% BSA) was diluted in the assay buffer (containing test compound or vehicle, respectively) to a final concentration of 5.6 nM. After incubation for 30 min at 37° C. 5 μCi/mL ^14C-2-[…]-D-glucose was added, and the incubation was continued for additional 30 min at 37° C. The cells were then washed 3 times with ice-cold PBS/20 mM glucose and […] in 250 μl of lysis buffer (50 mM HEPES pH 7.6, 1% Triton X-100) for 30 min at room temperature. Radioactivity in the lysate was quantified by scintillation counting.
Once ^14C-2-deoxy-D-glucose is transported into the cell it is not released. Glucose transport is, therefore, proportional to the amount of radioactivity in the lysate. The concentration of compound necessary to produce an increase in glucose transport greater than the sum of the standard deviation of the vehicle control plus the largest standard deviation of a test sample (generally 150% of the vehicle control) was recorded as the EC (effective concentration).

| SMILES | Activity (% Control) [1] | EC50 [2] |
| --- | --- | --- |
| Cc1ccc(C(=O)Nc2cc(C(=O)Nc3cccc4cc(S(=O)(=O)O)ccc34)cc(C(=O)Nc3cccc4cc(S(=O)(=O)O)ccc34)c2)cc1[N+](=O)[O-] [Compound 16, 5-({3-[(3-nitro-4-methylphenyl)carbonylamino]-5-[N-(6-sulfonaphthyl)carbamoyl]phenyl}carbonylamino)naphthalene-2-sulfonic acid] | 99.9 % Control | 20 µM |
| O=C(Nc1cc(C(=O)Nc2cccc3cc(S(=O)(=O)O)ccc23)cc(C(=O)Nc2cccc3cc(S(=O)(=O)O)ccc23)c1)c1ccc(Cl)cc1 [Compound 19, 5-({3-[(4-chlorophenyl)carbonylamino]-5-[N-(6-sulfonaphthyl)carbamoyl]phenyl}carbonylamino)naphthalene-2-sulfonic acid] | 99 % Control | 150 µM |
| CC(=O)Nc1cc(C(=O)Nc2cccc3cc(S(=O)(=O)O)ccc23)cc(C(=O)Nc2cccc3cc(S(=O)(=O)O)ccc23)c1 [Compound 23, 5-({3-(acetylamino)-5-[N-(6-sulfonaphthyl)carbamoyl]phenyl}carbonylamino)naphthalene-2-sulfonic acid] | 86.8 % Control | > 250 µM |
| O=C(Nc1cc(C(=O)Nc2cccc3cc(S(=O)(=O)O)ccc23)cc(C(=O)Nc2cccc3cc(S(=O)(=O)O)ccc23)c1)c1ccccc1 [Compound 22, 5-({3-(phenylcarbonylamino)-5-[N-(6-sulfonaphthyl)carbamoyl]phenyl}carbonylamino)naphthalene-2-sulfonic acid] | 75.9 % Control | 200 µM |
| O=C(Nc1cc(C(=O)Nc2cccc3cc(S(=O)(=O)O)ccc23)cc(C(=O)Nc2cccc3cc(S(=O)(=O)O)ccc23)c1)c1cccc(Cl)c1 [Compound 10, 5-({3-[(3-chlorophenyl)carbonylamino]-5-[N-(6-sulfonaphthyl)carbamoyl]phenyl}carbonylamino)naphthalene-2-sulfonic acid] | 123.1 % Control | 20 µM |
| O=C(Nc1cc(C(=O)Nc2cccc3cc(S(=O)(=O)O)ccc23)cc(C(=O)Nc2cccc3cc(S(=O)(=O)O)ccc23)c1)c1cccc([N+](=O)[O-])c1 [Compound 15, 5-({3-[(3-nitrophenyl)carbonylamino]-5-[N-(6-sulfonaphthyl)carbamoyl]phenyl}carbonylamino)naphthalene-2-sulfonic acid] | 88.2 % Control | 240 µM |
| O=C(Nc1cccc2cc(S(=O)(=O)O)ccc12)c1cc(NC(=O)c2cccc(O)c2C(=O)O)cc(C(=O)Nc2cccc3cc(S(=O)(=O)O)ccc23)c1 [Compound 21, 2-(N-{3,5-bis[N-(6-sulfonaphthyl)carbamoyl]phenyl}carbamoyl)-6-hydroxybenzoic acid] | 104.3 % Control | > 250 µM |
| O=C(Nc1cccc2cc(S(=O)(=O)O)ccc12)c1cc(NC(=O)c2cnc3ccccc3n2)cc(C(=O)Nc2cccc3cc(S(=O)(=O)O)ccc23)c1 [Compound 39] | 96.9 % Control | 100 µM |
| O=C(Nc1cc(C(=O)Nc2cccc3cc(S(=O)(=O)O)ccc23)cc(C(=O)Nc2cccc3cc(S(=O)(=O)O)ccc23)c1)c1cccc(F)c1 [Compound 11, 5-({3-[(3-fluorophenyl)carbonylamino]-5-[N-(6-sulfonaphthyl)carbamoyl]phenyl}carbonylamino)naphthalene-2-sulfonic acid] | 94 % Control | 20 µM |
| Cc1ccc(C(=O)Nc2cc(C(=O)Nc3cccc4cc(S(=O)(=O)O)ccc34)cc(C(=O)Nc3cccc4cc(S(=O)(=O)O)ccc34)c2)cc1 [Compound 8, 5-({3-[(4-methylphenyl)carbonylamino]-5-[N-(6-sulfonaphthyl)carbamoyl]phenyl}carbonylamino)naphthalene-2-sulfonic acid] | 130.5 % Control | 3 µM |
| O=C(Nc1cccc2cc(S(=O)(=O)O)ccc12)c1cc(NC(=O)c2cc(Cl)c(Cl)cc2C(=O)O)cc(C(=O)Nc2cccc3cc(S(=O)(=O)O)ccc23)c1 [Compound 18, 2-(N-{3,5-bis[N-(6-sulfonaphthyl)carbamoyl]phenyl}carbamoyl)-4,5-dichlorobenzoic acid] | 95.3 % Control | > 250 µM |
